Experimental data reported in the NIST ThermoML archive (doi:10.1016/j.jct.2018.02.001).
± gives the expanded uncertainty stated by the source.

Assays:
[1] = mn = molality of the nth substance listed, in mol/kg; settings: 100 kPa, Liquid, Vibrating tube method
[2] = 101.33 kPa, Liquid, Vibrating tube method

CCCCCC[n+]1ccn(CC)c1.[Br-] [1-ethyl-3-hexyl-1H-imidazolium bromide] + O
mass density [kg/m3], [1]
Settings | m1 = 0.0092 | m1 = 0.012 | m1 = 0.0168 | m1 = 0.02 | m1 = 0.0248 | m1 = 0.0295 | m1 = 0.0358 | m1 = 0.0432 | m1 = 0.0495
293.15 K | 998.59 ± 1.5 | 998.73 ± 1.5 | 998.92 ± 1.5 | 999.06 ± 1.5 | 999.26 ± 1.5 | 999.47 ± 1.5 | 999.75 ± 1.5 | 1000.07 ± 1.5 | 1000.35 ± 1.5
298.15 K | 997.35 ± 1.5 | 997.48 ± 1.5 | 997.66 ± 1.5 | 997.79 ± 1.5 | 998 ± 1.5 | 998.2 ± 1.5 | 998.48 ± 1.5 | 998.8 ± 1.5 | 999.08 ± 1.5
303.15 K | 995.82 ± 1.5 | 995.93 ± 1.5 | 996.11 ± 1.5 | 996.24 ± 1.5 | 996.43 ± 1.5 | 996.64 ± 1.5 | 996.9 ± 1.5 | 997.21 ± 1.5 | 997.48 ± 1.5
308.15 K | 994.05 ± 1.5 | 994.09 ± 1.5 | 994.21 ± 1.5 | 994.33 ± 1.5 | 994.51 ± 1.5 | 994.7 ± 1.5 | 994.96 ± 1.5 | 995.26 ± 1.5 | 995.51 ± 1.5

CCCCCCCCCCCC[n+]1ccn(CCCC)c1.[Br-] [1-butyl-3-dodecyl-1H-imidazolium bromide]
[2]
Settings | mass density [kg/m3]
293.15 K | 1059.3 ± 1.5
298.15 K | 1055.99 ± 1.5
303.15 K | 1052.6 ± 1.5
308.15 K | 1049.18 ± 1.5
313.15 K | 1045.73 ± 1.5
318.15 K | 1042.27 ± 1.5
323.15 K | 1038.83 ± 1.5

CCCCCCCC[n+]1ccn(CC)c1.[Br-] [1-ethyl-3-octyl-1H-imidazolium bromide] + O
mass density [kg/m3], [1]
Settings | 293.15 K | 298.15 K | 303.15 K | 308.15 K
m1 = 0.0128 | 998.68 ± 1.5 | 997.48 ± 1.5 | 995.95 ± 1.5 | 994.18 ± 1.5
m1 = 0.0143 | 998.75 ± 1.5 | 997.55 ± 1.5 | 996.03 ± 1.5 | 994.25 ± 1.5
m1 = 0.0149 | 998.78 ± 1.5 | 997.58 ± 1.5 | 996.06 ± 1.5 | 994.27 ± 1.5
m1 = 0.0171 | 998.87 ± 1.5 | 997.68 ± 1.5 | 996.14 ± 1.5 | 994.36 ± 1.5
m1 = 0.0206 | 999.02 ± 1.5 | 997.83 ± 1.5 | 996.29 ± 1.5 | 994.5 ± 1.5
m1 = 0.0216 | 999.07 ± 1.5 | 997.87 ± 1.5 | 996.33 ± 1.5 | 994.55 ± 1.5
m1 = 0.026 | 999.25 ± 1.5 | 998.06 ± 1.5 | 996.51 ± 1.5 | 994.71 ± 1.5
m1 = 0.0313 | 999.47 ± 1.5 | 998.28 ± 1.5 | 996.73 ± 1.5 | 994.91 ± 1.5
m1 = 0.0355 | 999.65 ± 1.5 | 998.45 ± 1.5 | 996.91 ± 1.5 | 995.08 ± 1.5
m1 = 0.0377 | 999.74 ± 1.5 | 998.54 ± 1.5 | 997 ± 1.5 | 995.16 ± 1.5
m1 = 0.0436 | 999.99 ± 1.5 | 998.77 ± 1.5 | 997.24 ± 1.5 | 995.39 ± 1.5
